Reference: article PMC8199578, “Anti-Inflammatory, Antiallergic, and COVID-19 Main Protease (M^pro) Inhibitory Activities of Butenolides from a Marine-Derived Fungus Aspergillus terreus” (Molecules, 2021)
Where two headings read alike, the source gives them in different places.

How the values were obtained:
[1] = MTT cell viability assay in mast cells; type: cell-based; conditions: rat
Description: (§1) The mucosal mast-cell-derived rat basophilic leukemia cells (RBL-2H3) were purchased from Bioresource Collection and Research Center (Hsin-Chu, Taiwan). The cells were cultured in DMEM containing 10% FBS, 100 U/mL penicillin, and 100 μg/mL streptomycin in 10 cm cell culture dishes at 37 °C in a humidified chamber with 5% CO2 in air. The level of degranulation in RBL-2H3 cells was evaluated using β-hexosaminidase release assay induced by A23187 or antigen as reported before with some modifications. Briefly, the cells were seeded in a 96-well plate (2 × 10^4 cells/well, for the A23187-induced assay) or a 48-well plate (3 × 10^4 cells/well, for the antigen-induced assay) overnight. The cells for the antigen-induced assay were sensitized with anti-DNP IgE (0.5 μg/mL; Sigma) during seeding overnight. RBL-2H3 cells were then treated with the samples (0.5, 5, and 50 μM) for 30 min in Tyrode’s buffer with a maximal DMSO dose of 0.5%. For the A23187-induced assay, the cells were activated by addition of A23187 (final concentration 0.5 μM), while cells for the antigen-induced assay were activated by the addition of DNP-BSA (final concentration 100 ng/mL) for 30 min. Azelastine (10 μM) served as the positive control. The amount of β-hexosaminidase was detected using the method utilizing p-NAG as the substrate according to the procedure described before.
The viability of the RBL-2H3 cells in the presence of the samples (10 and 100 μM) was determined using the methylthiazole tetrazolium (MTT) assay according to a previous method.

RBL-2H3 cells [2] = test: A23187-induced degranulation (β-hexosaminidase release) assay; type: cell-based; conditions: Rattus norvegicus; for IC50: RBL-2H3, read-out: Inhibition of A23187-Induced Degranulation IC50
Description: as §1

RBL-2H3 cells [3] = test: Antigen (anti-DNP IgE plus DNP-BSA)-induced degranulation (β-hexosaminidase release) assay; type: cell-based; conditions: Rattus norvegicus; for IC50: RBL-2H3, read-out: Inhibition of Antigen-Induced Degranulation IC50
Description: as §1

human neutrophils [4] = test: Elastase release in fMLF/CB-induced human neutrophils; type: cell-based; conditions: Neutrophil, read-out: Elastase Release in Human Neutrophils IC50
Description: (§2) The human neutrophils were obtained from venous blood of healthy adult volunteers (20–30 years old) following the reported procedure. Elastase release by the activated neutrophils was determined using elastase substrate (N-methoxysuccinyl-Ala-Ala-Pro-Val-p-nitroanilide) according to the previous methodology. The tested samples’ concentration was 1 to 10 μM and the total incubation time in fMLF/CB-induced cells was 15 min. Genistein was used as the positive control. Cytotoxicity test was performed based on the release of LDH stored in the cytoplasm out of the cells. Briefly, preheated (37 °C, 5 min, 1 mM CaCl2) human neutrophils (6 × 10^5 cells·mL^−1) were incubated with test compounds for 15 min. Total LDH release control was represented as completely lysed cells by 0.1% of Triton X-100 solution incubated with cells for 30 min. The cells were centrifuged at 4 °C for 200× g for 8 min, and LDH reagent was added to supernatant and reacted at room temperature for 30 min in the dark. The absorbance was then measured at 492 nm, and the LDH release was calculated and compared to the total LDH release set as 100%.

[5] = Lactate dehydrogenase (LDH) viability assay in human neutrophils; type: cell-based; conditions: human, human neutrophils; 10 μM; based on lactate dehydrogenase release; mean ± S.E.M. (n = 3); read-out: Cell viability, Human Neutrophils
Description: as §2

human neutrophils [6] = test: as above; type: cell-based; conditions: cell viability assay based on lactate dehydrogenase release
Description: as §2

[7] = biological target: T1, human neutrophil elastase (Homo sapiens, UniProt P08246); test: Elastase enzymatic activity (cell-free); type: biochemical; conditions: mean ± S.E.M. (n = 3)
T1 construct: followed by fMLF (0.1 μM) for 20 min to release the elastase from the cells; endogenous in cells; host or cells: human neutrophils; degranulation supernatant after CB/fMLF stimulation
T1 sequence (P08246 30-247 limits assumed): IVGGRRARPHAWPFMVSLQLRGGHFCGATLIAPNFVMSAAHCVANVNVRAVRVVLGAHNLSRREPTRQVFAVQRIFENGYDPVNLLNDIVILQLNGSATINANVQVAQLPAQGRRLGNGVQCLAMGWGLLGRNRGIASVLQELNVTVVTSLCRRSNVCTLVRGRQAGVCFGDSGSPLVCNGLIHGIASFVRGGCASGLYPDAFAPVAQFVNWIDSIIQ
Description: The compounds were further tested for direct inhibition of elastase enzymatic activity. The neutrophil suspension (6 × 10^5 cells mL^−1) was preheated for 5 min in the presence of CaCl2 (1 mM) at 37 °C. Priming agent CB (1.5 μg mL^−1) was added for 2 min, followed by fMLF (0.1 μM) for 20 min to release the elastase from the cells. After centrifugation at 1000 g for 5 min at 4 °C, the supernatant containing elastase was preheated at 37 °C for 5 min, and the test compounds were added. Then, 0.1 mM of substrate methoxysuccinyl-Ala-Ala-Pro-Val-p-nitroanilide was added for 10 min. The effect of the compounds on elastase enzymatic activity was quantified by measuring the absorbance at 405 nm.

[8] = parameters: method as in PMID 29763312; conditions: via reducing the levels of histamine and mouse mast cell proteinases; cited from earlier work
[9] = 100 μM, MTT viability assay, compared with untreated control (DMSO), n = 3, read-out: Cell Viability, RBL-2H3
[10] = RBL-2H3, read-out: Inhibition of A23187-induced degranulation
[11] = RBL-2H3, read-out: Inhibition of antigen-induced degranulation

SMILES: CC(C)=CCc1cc(C=O)ccc1O [4-hydroxy-3-(3-methylbut-2-enyl)benzaldehyde]
- viability at 100 µM [1]: > 90%
- IC50 (RBL-2H3 cells [2]): > 100 µM
- IC50 (RBL-2H3 cells [3]): > 100 µM
- IC50 (human neutrophils [4]; Homo sapiens): > 10 µM

SMILES: CN1CCCC(n2nc(Cc3ccc(Cl)cc3)c3ccccc3c2=O)CC1 (stereo not drawn) [Azelastine, reference compound]
- inhibition at 10 µM (RBL-2H3 cells [2]; RBL-2H3, 10 μM, mean ± S.E.M. (n = 3), read-out: Inhibition of A23187-induced degranulation): 34.5%
- inhibition at 10 µM (RBL-2H3 cells [3]; RBL-2H3, 10 μM, mean ± S.E.M. (n = 3), read-out: Inhibition of antigen-induced degranulation): 35.5%

SMILES: COC(=O)[C@]1(Cc2ccc(O)c(CC=C(C)C)c2)OC(=O)C(O)=C1c1ccc(O)cc1 [Butyrolactone I (1), butyrolactone I]
- viability at 100 µM [1, 9]: > 90%
- IC50 (RBL-2H3 cells [2]): 39.7 µM
- inhibition at 10 µM (RBL-2H3 cells [2]; [10]): 26%
- inhibition at 100 µM (RBL-2H3 cells [2]; [10]): 98.7%
- IC50 (RBL-2H3 cells [3]): 41.6 µM
- inhibition at 10 µM (RBL-2H3 cells [3]; [11]): 30%
- inhibition at 100 µM (RBL-2H3 cells [3]; [11]): 87%
- IC50 (human neutrophils [4]; Homo sapiens): 2.3 ± 0.27 µM
- viability at 15 min, 10 µM [5]: 94.1 ± 2.31%
- Toxicity to human neutrophils (in words) (human neutrophils [6]): non-toxic
- IC50 [7]: 16.7 ± 2.64 µM
- Effect on ovalbumin-induced allergy symptoms [8]: alleviating ovalbumin-induced allergy symptoms

SMILES: COC(=O)[C@]1(Cc2ccc(O)c(CC3OC3(C)C)c2)OC(=O)C(O)=C1c1ccc(O)cc1 (stereo partly drawn) [Butyrolactone III (2), butyrolactone III]
- viability at 100 µM [1, 9]: > 90%
- IC50 (RBL-2H3 cells [2]): > 100 µM
- IC50 (RBL-2H3 cells [3]): > 100 µM
- IC50 (human neutrophils [4]; Homo sapiens): > 10 µM
- viability at 15 min, 10 µM [5]: 98.2 ± 1.77%
- Toxicity to human neutrophils (in words) (human neutrophils [6]): non-toxic
- IC50 [7]: > 30 µM

SMILES: O=c1c(-c2ccc(O)cc2)coc2cc(O)cc(O)c12 [Genistein, reference compound]
- IC50 (human neutrophils [4]; fMLF/cytochalasin B (CB)-induced human neutrophils, mean ± S.E.M. (n = 3)): 32.7 µM

SMILES: C=C1C[C@]2(O)[C@@]3(C)CCC(=O)C(C)(C)C3=C(O)C(=O)[C@@]2(C)[C@@H]2C(=O)O[C@@](C)(C(=O)OC)C(=O)[C@@]12C [Terretonin (3), terretonin]
- viability at 100 µM [1, 9]: > 90%
- IC50 (RBL-2H3 cells [2]): > 100 µM
- IC50 (RBL-2H3 cells [3]): > 100 µM
- IC50 (human neutrophils [4]; Homo sapiens): > 10 µM
